Laboratory results: PubChem BioAssay (NCI)
Several values for one entry are separate records, joined by “and”; a condition that tells them apart may be missing. Identical values can stand only once.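 Exposure lasted 48 hours, with cells grown in 96-well plates and compounds tested at five concentrations. The concentration for 50% growth inhibition is given as GI50. TGI: total growth inhibition.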

Experiments:
Assay in all cases: NCI-60 cell line screen, 48 h
HOP-62 NSCLC = tested on: HOP-62 NSCLC
U251 CNS = tested on: U251 CNS
MALME-3M melanoma = tested on: MALME-3M melanoma
UO-31 renal = tested on: UO-31 renal
786-0 renal = tested on: 786-0 renal
K-562 leukemia = tested on: K-562 leukemia
KM12 colon = tested on: KM12 colon
NCI-H460 lung = tested on: NCI-H460 lung
OVCAR-4 ovarian = tested on: OVCAR-4 ovarian
HCT-15 colon = tested on: HCT-15 colon
SN12C renal = tested on: SN12C renal

## CC(=O)OCC1OC(n2c(S)c(C#N)c(-c3ccccc3)c(C#N)c2=O)C(OC(C)=O)C(OC(C)=O)C1OC(C)=O (configuration not stated)
HOP-62 NSCLC
  TGI: 52.9 µM and 75.7 µM
U251 CNS
  TGI: > 100 µM
MALME-3M melanoma
  GI50: > 100 µM and 32.2 µM
  TGI: > 100 µM and 98.9 µM
UO-31 renal
  GI50: > 68.1 µM and 29.1 µM
  TGI: > 100 µM and 87.3 µM
786-0 renal
  TGI: > 100 µM and 83.4 µM
K-562 leukemia
  TGI: > 100 µM
KM12 colon
  GI50: > 100 µM and 21.8 µM
  TGI: > 100 µM and 52 µM
NCI-H460 lung
  TGI: > 100 µM
OVCAR-4 ovarian
  GI50: > 100 µM and 30.6 µM
  TGI: > 100 µM and 83.3 µM
HCT-15 colon
  TGI: > 100 µM
SN12C renal
  GI50: > 100 µM and 25.2 µM
  TGI: > 100 µM and 81.7 µM

## O=c1[nH]c(NCc2ccc(Cl)cc2)nc2nc[nH]c12
HOP-62 NSCLC
  TGI: > 100 µM
U251 CNS
  TGI: > 100 µM
MALME-3M melanoma
  TGI: > 100 µM
UO-31 renal
  TGI: > 100 µM
786-0 renal
  TGI: > 100 µM
K-562 leukemia
  TGI: > 100 µM
KM12 colon
  TGI: > 100 µM
NCI-H460 lung
  TGI: > 100 µM
OVCAR-4 ovarian
  TGI: > 100 µM
HCT-15 colon
  TGI: > 100 µM
SN12C renal
  TGI: > 100 µM

## C(#CP(c1ccccc1)c1ccccc1)P(C#CP(c1ccccc1)c1ccccc1)c1ccccc1
HOP-62 NSCLC
  TGI: > 100 µM
U251 CNS
  TGI: > 100 µM
MALME-3M melanoma
  TGI: > 100 µM
UO-31 renal
  TGI: > 100 µM
786-0 renal
  TGI: > 100 µM
K-562 leukemia
  TGI: > 100 µM
KM12 colon
  TGI: > 100 µM
NCI-H460 lung
  TGI: > 100 µM
OVCAR-4 ovarian
  TGI: > 100 µM
HCT-15 colon
  TGI: > 100 µM
SN12C renal
  TGI: > 100 µM

## COc1ccccc1C(=O)NCC1CCCN2CCCCC12 (configuration not stated)
HOP-62 NSCLC
  TGI: > 100 µM
U251 CNS
  TGI: > 100 µM
MALME-3M melanoma
  TGI: > 100 µM
UO-31 renal
  TGI: > 100 µM
786-0 renal
  TGI: > 100 µM
K-562 leukemia
  TGI: > 100 µM
KM12 colon
  TGI: > 100 µM
NCI-H460 lung
  TGI: > 100 µM
OVCAR-4 ovarian
  TGI: > 100 µM
HCT-15 colon
  TGI: > 100 µM
SN12C renal
  TGI: > 100 µM

## COC(=O)C1OC(O[C@H]2CC[C@]3(C)[C@H]4CC=C5[C@@H]6CC(C)(C)CC[C@]6(C(=O)OC6OCC(O)C(O)C6OC6OC(C)C(OC7OCC(O)C(O)C7O)C(OC7OCC(O)(CO)C7O)C6O)[C@H](O)C[C@@]5(C)[C@]4(C)CC[C@H]3C2(C)C)C(O)C(O)C1O (some centres not stated)
HOP-62 NSCLC
  TGI: 10.1 µM
U251 CNS
  TGI: 19.3 µM
MALME-3M melanoma
  TGI: 15.7 µM
UO-31 renal
  TGI: 4.62 µM
786-0 renal
  TGI: 20 µM
K-562 leukemia
  TGI: > 100 µM
KM12 colon
  TGI: 9.49 µM
NCI-H460 lung
  TGI: 34.3 µM
OVCAR-4 ovarian
  TGI: 17.4 µM
HCT-15 colon
  TGI: 22.2 µM
SN12C renal
  TGI: 3.6 µM

## O=C1C(c2c(O)[nH]c3ccc(Br)cc23)=Nc2ccc(Br)cc21
HOP-62 NSCLC
  TGI: > 100 µM
U251 CNS
  TGI: 35 µM
MALME-3M melanoma
  TGI: > 100 µM
UO-31 renal
  TGI: > 100 µM
786-0 renal
  TGI: 46.9 µM
K-562 leukemia
  TGI: > 100 µM
KM12 colon
  TGI: > 100 µM
NCI-H460 lung
  TGI: > 100 µM
OVCAR-4 ovarian
  TGI: > 100 µM
HCT-15 colon
  TGI: > 100 µM
SN12C renal
  TGI: > 100 µM

## Nc1nc(Cl)c(Cl)c(NCC2(O)CCC2)n1
HOP-62 NSCLC
  TGI: > 100 µM
U251 CNS
  TGI: > 100 µM
MALME-3M melanoma
  TGI: > 100 µM
UO-31 renal
  TGI: > 100 µM
786-0 renal
  TGI: > 100 µM
K-562 leukemia
  TGI: > 100 µM
KM12 colon
  TGI: > 100 µM
NCI-H460 lung
  TGI: > 100 µM
OVCAR-4 ovarian
  TGI: 69 µM
HCT-15 colon
  TGI: > 100 µM
SN12C renal
  TGI: > 100 µM

## C[C@H](CCC1SC1(C)C)C1CCC2(C)C3=C(CC[C@]12C)[C@@]1(C)CC[C@H](O)C(C)(C)C1CC3 (some centres not stated)
HOP-62 NSCLC
  TGI: > 100 µM
MALME-3M melanoma
  TGI: > 100 µM
UO-31 renal
  TGI: > 100 µM
786-0 renal
  TGI: > 100 µM
K-562 leukemia
  TGI: > 100 µM
KM12 colon
  TGI: > 100 µM
NCI-H460 lung
  TGI: > 100 µM
OVCAR-4 ovarian
  TGI: > 100 µM
HCT-15 colon
  TGI: > 100 µM
SN12C renal
  TGI: > 100 µM

## C(=Nc1ccc(-c2nc3ccccc3s2)cc1)c1ccc[nH]1
HOP-62 NSCLC
  TGI: 27.6 µM
U251 CNS
  TGI: 27.7 µM
MALME-3M melanoma
  TGI: 32.2 µM
UO-31 renal
  TGI: 53.5 µM
786-0 renal
  TGI: 52.4 µM
K-562 leukemia
  TGI: 66.6 µM
KM12 colon
  TGI: 71.3 µM
NCI-H460 lung
  TGI: 38.1 µM
OVCAR-4 ovarian
  TGI: 89.7 µM
HCT-15 colon
  TGI: 38.7 µM
SN12C renal
  TGI: 44.8 µM

## COc1ccc(C2C(=O)c3c(OC)cc(OC)cc3OC2c2cccnc2)cc1 (configuration not stated)
HOP-62 NSCLC
  TGI: > 100 µM
MALME-3M melanoma
  TGI: > 100 µM
UO-31 renal
  TGI: > 100 µM
786-0 renal
  TGI: > 100 µM
K-562 leukemia
  TGI: > 100 µM
KM12 colon
  TGI: > 100 µM
NCI-H460 lung
  TGI: > 100 µM
OVCAR-4 ovarian
  TGI: > 100 µM
HCT-15 colon
  TGI: > 100 µM
SN12C renal
  TGI: > 100 µM

## CCC(C)C1=C(O)[N+]2([O-])Oc3ccc(-c4c(O)c(O)c(-c5ccc(OC(C)=O)cc5)c(OC(C)=O)c4OC(C)=O)cc3OC2(C(C)CC)C(=O)N1O (configuration not stated)
HOP-62 NSCLC
  TGI: > 50 µM
U251 CNS
  TGI: > 50 µM
MALME-3M melanoma
  TGI: > 50 µM
UO-31 renal
  TGI: > 50 µM
786-0 renal
  TGI: > 50 µM
K-562 leukemia
  TGI: 49.1 µM and > 50 µM
KM12 colon
  TGI: > 50 µM
NCI-H460 lung
  TGI: > 50 µM
OVCAR-4 ovarian
  TGI: 41.4 µM and 46.7 µM
HCT-15 colon
  TGI: > 50 µM
SN12C renal
  TGI: > 50 µM

## CC1=CP(=O)(c2c(C(C)C)cc(C(C)C)cc2C(C)C)CCC1Cl (configuration not stated)
HOP-62 NSCLC
  TGI: 33.9 µM
U251 CNS
  TGI: 32.3 µM
MALME-3M melanoma
  TGI: 30.4 µM
UO-31 renal
  TGI: 29.2 µM
786-0 renal
  TGI: 36.7 µM
K-562 leukemia
  TGI: 35.6 µM
KM12 colon
  TGI: 40.2 µM
NCI-H460 lung
  TGI: 35.3 µM
OVCAR-4 ovarian
  TGI: 48.5 µM
HCT-15 colon
  TGI: 39.8 µM
SN12C renal
  TGI: 34.7 µM

## CCOC(=O)C1(C#N)CC1
HOP-62 NSCLC
  TGI: > 100 µM
U251 CNS
  TGI: > 100 µM
MALME-3M melanoma
  TGI: > 100 µM
UO-31 renal
  TGI: > 100 µM
786-0 renal
  TGI: > 100 µM
K-562 leukemia
  TGI: > 100 µM
KM12 colon
  TGI: > 100 µM
NCI-H460 lung
  TGI: > 100 µM
OVCAR-4 ovarian
  TGI: > 100 µM
HCT-15 colon
  TGI: > 100 µM
SN12C renal
  TGI: > 100 µM

## C/C(=N\O)c1cccc[n+]1Cc1ccccc1
HOP-62 NSCLC
  TGI: > 100 µM
U251 CNS
  TGI: > 100 µM
MALME-3M melanoma
  TGI: > 100 µM
UO-31 renal
  TGI: > 100 µM
786-0 renal
  TGI: > 100 µM
K-562 leukemia
  TGI: > 100 µM
KM12 colon
  TGI: > 100 µM
NCI-H460 lung
  TGI: > 100 µM
OVCAR-4 ovarian
  TGI: > 100 µM
HCT-15 colon
  TGI: > 100 µM
SN12C renal
  TGI: > 100 µM

## CN(C)c1ccc(/C=C/c2sc3ccccc3[n+]2C)cc1
HOP-62 NSCLC
  GI50: 3.7 µM and 8.53 µM
  TGI: 14.9 µM and > 100 µM
U251 CNS
  GI50: 0.479 µM and 0.121 µM
  TGI: 13.8 µM and > 100 µM
MALME-3M melanoma
  TGI: 12.1 µM and 6 µM
UO-31 renal
  GI50: 2.91 µM
786-0 renal
  TGI: 14.9 µM and > 100 µM
K-562 leukemia
  GI50: 0.515 µM and 0.856 µM
  TGI: 4.26 µM and 26.2 µM
KM12 colon
  GI50: 0.621 µM
  TGI: > 25.2 µM and 5.26 µM
NCI-H460 lung
  GI50: 1.88 µM and 0.744 µM
  TGI: 5.28 µM and 7.85 µM
OVCAR-4 ovarian
  TGI: 10.2 µM and 9.3 µM
HCT-15 colon
  TGI: 29.3 µM and 24.2 µM
SN12C renal
  GI50: 1.71 µM and 0.645 µM
  TGI: 7.6 µM and 15.7 µM

## CCN1CCC(CNC(=O)c2ccc(N)cc2)N1CC (configuration not stated)
HOP-62 NSCLC
  TGI: > 100 µM
U251 CNS
  TGI: > 100 µM
MALME-3M melanoma
  TGI: > 100 µM
UO-31 renal
  TGI: > 100 µM
786-0 renal
  TGI: > 100 µM
K-562 leukemia
  TGI: > 100 µM
KM12 colon
  TGI: > 100 µM
NCI-H460 lung
  TGI: > 100 µM
OVCAR-4 ovarian
  TGI: > 100 µM
HCT-15 colon
  TGI: > 100 µM
SN12C renal
  TGI: > 100 µM

## CN(CCNC(=O)c1c[nH]c2c1Cc1ccccc1-2)CCNC(=O)c1c[nH]c2c1Cc1ccccc1-2
HOP-62 NSCLC
  TGI: > 100 µM
U251 CNS
  TGI: 34.7 µM
MALME-3M melanoma
  TGI: > 100 µM
UO-31 renal
  TGI: > 100 µM
786-0 renal
  TGI: 44.8 µM
K-562 leukemia
  TGI: > 100 µM
KM12 colon
  TGI: > 100 µM
NCI-H460 lung
  TGI: > 100 µM
OVCAR-4 ovarian
  TGI: > 100 µM
HCT-15 colon
  TGI: > 100 µM
SN12C renal
  TGI: > 100 µM

## O=C1CSC(c2cccc(Cl)c2)N1c1ccc(-c2ccc(-n3c(-c4ccccc4)nc4ccccc4c3=O)cc2)cc1 (configuration not stated)
HOP-62 NSCLC
  TGI: > 100 µM
U251 CNS
  TGI: > 100 µM
MALME-3M melanoma
  TGI: > 100 µM
UO-31 renal
  TGI: 84.1 µM
786-0 renal
  TGI: > 100 µM
K-562 leukemia
  TGI: > 100 µM
KM12 colon
  TGI: > 100 µM
NCI-H460 lung
  TGI: > 100 µM
OVCAR-4 ovarian
  TGI: > 100 µM
HCT-15 colon
  TGI: > 100 µM
SN12C renal
  TGI: > 100 µM
